# Reference: US20260069619A1, “Treatment of Dry Eye Disease Using Mitochondrially Targeted Antioxidants” (MITOTECH S.A., priority 2022, published 2026)
# Columns and labels:
# [1] = system: subjects with dry eye syndrome; test: VISTA-2 clinical study (NCT04206020): central corneal fluorescein staining; format: in vivo, human; details: for Change from baseline in central fluorescein staining, LS Mean: 1.55 μg/mL SkQ1, ITT subgroup, observed data only
# Protocol: The VISTA-2 (NCT04206020) clinical study reported results of a dose of 1.55 μg/mL SkQ1 compared to placebo (vehicle). VISTA-2 reported a measured change of ocular discomfort scale. The scale ranged from 0 to 4 with 0=no discomfort and 4=constant discomfort from baseline to Day 57. VISTA-2 reported a measured change of level of conjunctival fluorescein staining (sum of temporal and nasal regions). The scale in each region ranged from 0 to 4, with 0=no staining and 4=confluent staining from baseline to day 57. Study subjects were carefully monitored for any adverse events.
# (§1) In addition to the reported data, observed data collected during the VISTA-1 and VISTA-2 clinical studies were analyzed in an ITT subgroup with an unanesthetized Schirmer's Test ≥7 mm at baseline (initial evaluation).
# (§2) In both VISTA-1 and VISTA-2, post-hoc analyses were conducted on observed data for the ITT subgroup including subjects with an unanesthetized Schirmer's test score of ≥7 mm at baseline, with observed data only to evaluate change from baseline in central fluorescein staining. Table 4 summarizes the results for subjects with unanesthetized Schirmer's test score of […] at baseline. […] In VISTA-2, with increased sample size, significant improvement was confirmed in this subgroup (pANCOVA=0.0168). In Table 4, the change from baseline in central fluorescein staining for the ITT subgroup with unanesthetized Schirmer's test score of ≥7 mm at baseline is provided with observed data only.
# (§3) A similar subgroup, as described above, was also analyzed in post-hoc analyses for both VISTA-1 and VISTA-2 to evaluate the proportion of subjects with clearing of corneal fluorescein staining in the central region. […] In VISTA-2, with increased sample size, significant improvement was confirmed (pLogistic regression=0.0049, pPearson chi-squared=0.0033, pFisher's exact test=0.0037). In Table 5, the proportion of study subjects with clearing of corneal fluorescein staining in the central corneal region, for the ITT Subgroup with unanesthetized Schirmer's test score of ≥7 mm at baseline is presented, with observed data only.
# [2] = system: subjects with dry eye syndrome; test: VISTA-1 clinical study (NCT03764735): central corneal fluorescein staining; format: in vivo, human; details: for Change from baseline in central corneal fluorescein staining, ANCOVA model LS Mean (SE) / Difference in Means, Active - Placebo (two-sample t-test), central corneal fluorescein staining change: 57 days, mITT; for Change from baseline in central corneal fluorescein staining, Mean (SD): after 57 days, mITT population, scale 0-4; for Change from baseline in central fluorescein staining, LS Mean: ITT subgroup, observed data only
# From the text: The VISTA-1 clinical study (NCT03764735) evaluated ophthalmic solutions with different concentrations of SkQ1 for various aspects of safety and effectiveness compared to placebo (vehicle) for treatment of various signs and symptoms of DED. The vehicle was an artificial tear treatment used as a control.
# The VISTA-1 study reported change of level of corneal fluorescein staining from baseline to day 57. The level of corneal fluorescein scale ranged from 0 to 4, where level 0=none and level 4=severe. VISTA-1 reported a change in symptoms such as subject-reported grittiness from baseline to day 57, where the scale ranged from 0 to 5 for each symptom, where 0=none and 5=worst. Study subjects were carefully monitored for any adverse events.
# as §1, §2, §3
# [3] = system: subjects with dry eye syndrome; test: VISTA-2 clinical study: best corrected visual acuity (BCVA-logMAR); format: in vivo, human; details: blurred vision [OSDI 4]≥1, poor vision [OSDI 5]≥1 at baseline
# From the text: Visual acuity can be measured by a health care provider to provide a sign of DED. The visual acuity can be a best corrected visual acuity (BCVA) of an eye or of both eyes. A logarithm of the minimum angle of resolution (LogMAR) chart such, for example, a Bailey-Lovie chart or an Early Treatment Diabetic Retinopathy Study chart can be utilized to measure BCVA. The number of letters read correctly by a subject can be converted to logMAR scores. The VISTA-2 (NCT04206020) clinical study reported results of a dose of 1.55 μg/mL SkQ1 compared to placebo (vehicle). VISTA-2 reported a measured change of ocular discomfort scale. The scale ranged from 0 to 4 with 0=no discomfort and 4=constant discomfort from baseline to Day 57. VISTA-2 reported a measured change of level of conjunctival fluorescein staining (sum of temporal and nasal regions). The scale in each region ranged from 0 to 4, with 0=no staining and 4=confluent staining from baseline to day 57. Study subjects were carefully monitored for any adverse events. [table] In VISTA-2, change from baseline in BCVA using a logMAR (BCVA-logMAR) at Visit 3 was evaluated in the ITT subgroup including subjects with Schirmer's test score ≥7 mm, blurred vision [OSDI 4]≥1, and poor vision [OSDI 5]≥1 at baseline. Significant improvement was shown in VISTA-2 with pANCOVA=0.0143. […]
# eye = details: cited from earlier work
# [4] = 1.55 μg/mL SkQ1, ITT subgroup Schirmer's ≥7 mm at baseline
# [5] = 1.55 μg/mL SkQ1, ITT subgroup Schirmer's ≥7 mm at baseline, of 78 subjects
# [6] = VISTA-1, 1.55 μg/mL SkQ1, ITT subgroup Schirmer's ≥7 mm at baseline
# [7] = VISTA-1, 1.55 μg/mL SkQ1, ITT subgroup Schirmer's ≥7 mm at baseline, of 46 subjects
substance,measurement,setting,value
SkQ1,Proportion of Subjects with Fluorescein Staining in the Central Region (>0 Score),[1]; [4],(83.3%)
same,Proportion of Subjects without Fluorescein Staining in the Central Region (=0 Score),[1]; [4],(16.7%)
same,Number of Subjects with Fluorescein Staining in the Central Region (>0 Score),[1]; [5],65
same,Number of Subjects without Fluorescein Staining in the Central Region (=0 Score),[1]; [5],13
same,"Change from baseline in central fluorescein staining, LS Mean",[1]; unanesthetized Schirmer's test <7 mm at baseline,−0.156
same,"Change from baseline in central fluorescein staining, LS Mean",[1]; unanesthetized Schirmer's test ≥7 mm at baseline,−0.43
same,"Odds Ratio, Logistic Regression, clearing of central corneal fluorescein staining, 1.55 μg/mL SkQ1 - Placebo",[1]; ITT subgroup Schirmer's ≥7 mm at baseline,6.73
same,"Change from baseline in central corneal fluorescein staining, ANCOVA model LS Mean (SE)",[2]; 0.155 μg/mL SkQ1,−0.31 (0.059)
same,"Difference in Means, Active - Placebo (two-sample t-test), central corneal fluorescein staining change",[2]; 0.155 μg/mL SkQ1,−0.02
same,"Change from baseline in central corneal fluorescein staining, ANCOVA model LS Mean (SE)","[2]; 0.155 μg/mL SkQ1, listed as SkQ",−0.31
same,"Change from baseline in central corneal fluorescein staining, Mean (SD)",[2]; 0.155 μg/mL SkQ1 ophthalmic solution BID,−0.30 (0.816)
same,"Change from baseline in central corneal fluorescein staining, ANCOVA model LS Mean (SE)",[2]; 1.55 μg/mL SkQ1,−0.20 (0.058)
same,"Difference in Means, Active - Placebo (two-sample t-test), central corneal fluorescein staining change",[2]; 1.55 μg/mL SkQ1,0.08
same,"Change from baseline in central corneal fluorescein staining, ANCOVA model LS Mean (SE)","[2]; 1.55 μg/mL SkQ1, listed as SkQ6",−0.20
same,"Change from baseline in central corneal fluorescein staining, Mean (SD)",[2]; 1.55 μg/mL SkQ1 ophthalmic solution BID,−0.20 (0.763)
same,Treatment effect on the central fluorescein staining sign of dry eye vs placebo,"[2]; 0.155 and 1.55 μg/mL SkQ1 ophthalmic solution, all treatment groups",no statistically significant beneficial treatment effect
same,Proportion of Subjects with Fluorescein Staining in the Central Region (>0 Score),[2]; [6],(84.8%)
same,Proportion of Subjects without Fluorescein Staining in the Central Region (=0 Score),[2]; [6],(15.2%)
same,Number of Subjects with Fluorescein Staining in the Central Region (>0 Score),[2]; [7],39
same,Number of Subjects without Fluorescein Staining in the Central Region (=0 Score),[2]; [7],7
same,"Change from baseline in central fluorescein staining, LS Mean","[2]; VISTA-1, 1.55 μg/mL SkQ1, unanesthetized Schirmer's test <7 mm at baseline",−0.20
same,"Change from baseline in central fluorescein staining, LS Mean","[2]; VISTA-1, 1.55 μg/mL SkQ1, unanesthetized Schirmer's test ≥7 mm at baseline",−0.46
same,"Odds Ratio, Logistic Regression, clearing of central corneal fluorescein staining, 1.55 μg/mL SkQ1 - Placebo","[2]; VISTA-1, ITT subgroup Schirmer's ≥7 mm at baseline",7.57
same,"BCVA-logMAR change from baseline, LS Mean (SE)","[3]; 1.55 μg/mL SkQ1, ITT subgroup Schirmer's <7 mm",−0.0 (0.0137)
same,"BCVA-logMAR change from baseline, LS Mean (SE)","[3]; 1.55 μg/mL SkQ1, Visit 3, ITT subgroup Schirmer's ≥7 mm",−0.012 (0.0143)
same,dose at which mild ocular toxicity is observed,eye; in vivo,45 μg/eye/day
same,no observed adverse effect level (NOAEL) for ocular toxicity,eye; per eye per day,4.5 μg/eye/day
